In patent US20250127770A1, “FORMULATIONS OF RADIPRODIL” (GRIN Therapeutics, Inc., priority 2021, published 2025):

Key:
[1] = Stability study of radiprodil solid forms (dihydrate vs anhydrous form A); type: physicochemical; details: in presence of water
[2] = Dissolution test, USPII paddle apparatus, 0.5% sodium lauryl sulphate solution in water; type: physicochemical; details: without reconstitution in SYRSPEND SF and water prior to the test; FIG. 2
Method: This study summarizes dissolution experiments preformed on the radiprodil drug substance and on the drug product including two drug loadings with and without reconstitution in SYRSPEND® and water prior to the dissolution test.
All dissolution experiments were performed on six vessels and the comparative curves were plotted using the average of them.
Some dissolution experiments were performed using prior to the dissolution a reconstitution in Syrpend® and water. In that case, the reconstitution was prepared and let under stirring for 1 night prior to the dissolution test. In order to mimic the clinical pharmacy manual, an additional test was performed with an extemporaneous suspension (15 min under stirring prior to the dissolution).
Dissolution and high performance liquid chromatography (HPLC) parameters used in the experiments are provided below in Tables […] and 12, respectively.
Radiprodil, as the dihydrate and Form A, as well as Form A containing granules (1% and 10% as described above) and blends of dihydrate and Form A (1% and 10% blends of dihydrate form and Form A) were submitted to dissolution tests in sodium lauryl sulfate (0.5% in water). […]

Row | SMILES | Stability of solid form [1] | Dissolution profile [2]
1 | O=C(Nc1ccc2[nH]c(=O)oc2c1)C(=O)N1CCC(Cc2ccc(F)cc2)CC1 (single isomer, unassigned) [anhydrous form A, Radiprodil] | more stable than the dihydrate even in presence of water | 
2 | O=C(Nc1ccc2[nH]c(=O)oc2c1)C(=O)N1CCC(Cc2ccc(F)cc2)CC1 [dihydrate form, Radiprodil] |  | more rapid in aqueous media than the one of anhydrous form A
